Experimental data published in ChEMBL document CHEMBL1201862, “PubChem BioAssay data set” (2004).
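These data come from cells grown in 96-well plates and exposed to compound for 48 hours at five concentrations. GI50 marks 50% less growth.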 Calls of active or inactive are those of the source. No stated cut-off is given here; in the data, active = GI50 up to about 1.1 µM and inactive = higher.

Tests used:
Experiment in all cases: NCI-60 cell line screen, 48 h
[1] = test system: SK-MEL-5
[2] = test system: DU-145
[3] = test system: OVCAR-5
[4] = test system: ACHN
[5] = test system: COLO 205
[6] = test system: UACC-62
[7] = test system: EKVX
[8] = test system: PC-3
[9] = test system: NCI-H226
[10] = test system: K562
[11] = test system: NCI-H460
[12] = test system: A549
[13] = test system: HCT-15
[14] = test system: MDA-MB-435
[15] = test system: RPMI-8226
[16] = test system: SK-MEL-2
[17] = test system: IGROV-1
[18] = test system: HL-60
[19] = test system: SNB-75
[20] = test system: RXF 393
[21] = test system: SF-539
[22] = test system: SR
[23] = test system: NCI/ADR-RES
[24] = test system: UACC-257
[25] = test system: SW-620
[26] = test system: TK-10
[27] = test system: CAKI-1
[28] = test system: SN12C
[29] = test system: CCRF-CEM
[30] = test system: HT-29
[31] = test system: LOX IMVI
[32] = test system: SNB-19
[33] = test system: Malme-3M
[34] = test system: Hs-578T
[35] = test system: U-251
[36] = test system: HOP-62
[37] = test system: HCT-116
[38] = test system: SK-OV-3
[39] = test system: 786-0
[40] = test system: OVCAR-8
[41] = test system: BT-549
[42] = test system: SK-MEL-28
[43] = test system: MDA-MB-231
[44] = test system: MCF7
[45] = test system: MOLT-4
[46] = test system: T47D
[47] = test system: OVCAR-3
[48] = test system: SF-268
[49] = test system: SF-295
[50] = test system: NCI-H522
[51] = test system: HCC 2998
[52] = test system: MDA-N
[53] = test system: KM12
[54] = test system: M14
[55] = test system: NCI-H23
[56] = test system: OVCAR-4
[57] = test system: UO-31

CC(C)CC(C(N)=O)C(=O)NC(Cc1ccccc1)NC(=O)CNC(=O)C(C)NC(=O)C(N)Cc1ccc(O)cc1 (configuration not stated)
GI50 [1]: > 100 µM (inactive)
GI50 [2]: > 100 µM (inactive)
GI50 [3]: > 100 µM (inactive)
GI50 [4]: > 100 µM (inactive)
GI50 [5]: > 100 µM (inactive)
GI50 [6]: > 100 µM (inactive)
GI50 [7]: > 100 µM (inactive)
GI50 [8]: > 100 µM (inactive)
GI50 [9]: > 100 µM (inactive)
GI50 [10]: > 100 µM (inactive)
GI50 [11]: > 100 µM (inactive)
GI50 [12]: > 100 µM (inactive)
GI50 [13]: > 100 µM
GI50 [14]: > 100 µM (inactive)
GI50 [15]: > 100 µM (inactive)
GI50 [16]: > 100 µM (inactive)
GI50 [17]: > 100 µM (inactive)
GI50 [18]: > 100 µM (inactive)
GI50 [19]: > 100 µM (inactive)
GI50 [20]: > 100 µM (inactive)
GI50 [21]: > 100 µM (inactive)
GI50 [22]: > 100 µM (inactive)
GI50 [23]: > 100 µM (inactive)
GI50 [24]: > 100 µM (inactive)
GI50 [25]: > 100 µM (inactive)
GI50 [26]: > 100 µM (inactive)
GI50 [27]: > 100 µM (inactive)
GI50 [28]: > 100 µM (inactive)
GI50 [29]: > 100 µM (inactive)
GI50 [30]: > 100 µM (inactive)
GI50 [31]: > 100 µM (inactive)
GI50 [32]: > 100 µM (inactive)
GI50 [33]: > 100 µM (inactive)
GI50 [34]: > 100 µM (inactive)
GI50 [35]: > 100 µM (inactive)
GI50 [36]: > 100 µM (inactive)
GI50 [37]: > 100 µM (inactive)
GI50 [38]: > 100 µM (inactive)
GI50 [39]: > 100 µM (inactive)
GI50 [40]: > 100 µM (inactive)
GI50 [41]: > 100 µM (inactive)
GI50 [42]: > 100 µM (inactive)
GI50 [43]: > 100 µM (inactive)
GI50 [44]: > 100 µM (inactive)
GI50 [45]: > 100 µM (inactive)
GI50 [46]: > 100 µM (inactive)
GI50 [47]: > 100 µM (inactive)
GI50 [48]: > 100 µM (inactive)
GI50 [49]: > 100 µM (inactive)
GI50 [50]: > 100 µM (inactive)
GI50 [51]: > 100 µM (inactive)
GI50 [52]: > 100 µM (inactive)
GI50 [53]: > 100 µM (inactive)
GI50 [54]: > 100 µM (inactive)
GI50 [55]: > 100 µM (inactive)
GI50 [56]: > 100 µM (inactive)
GI50 [57]: > 100 µM (inactive)
